Test results reported in publication PMC10610505, “Synthesis and Biological Evaluation of Some New 3-Aryl-2-thioxo-2,3-dihydroquinazolin-4(1H)-ones and 3-Aryl-2-(benzylthio)quinazolin-4(3H)-ones as Antioxidants; COX-2, LDHA, α-Glucosidase and α-Amylase Inhibitors; and Anti-Colon Carcinoma and Apoptosis-Inducing Agents” (Pharmaceuticals, 2023).

What was measured:
α-amylase = test: In vitro α-amylase (AA) inhibition assay; conditions: mean ± SD of three replicates; for IC50: read-out: Mean IC50 α-Amylase (AA)
Experimental: Then, 180 µL of Labtest (the amylase substrate) was added and the samples were incubated for 8 min, followed by measuring the first reaction at 620 nm to obtain (X1). Afterwards, the reaction mixture was incubated for an additional 5 min at 37 °C; then, the second reaction was measured to obtain the final reading (X2). […] The results were expressed as IC50 µg/mL (as well as µM) and were determined from the standard curves.

COX-2 = target: T1, COX-2 (Homo sapiens, UniProt P35354); test: COX-2 inhibitory screening assay (Cayman kit); type: biochemical; conditions: for Increase in COX-2 inhibitory efficiency by duplicating the concentration: % inhibition at 0.200 mg/mL divided by % inhibition at 0.100 mg/mL; for inhibition at 100 µg/mL: at 0.100 mg/mL; for inhibition at 100 µg/mL / inhibition at 200 µg/mL: read-out: COX-2 mean % inhibition ± SD; for inhibition at 200 µg/mL: at 0.200 mg/mL
T1 construct: purchased Cayman Chemical Company 701080
T1 sequence (P35354 18-604): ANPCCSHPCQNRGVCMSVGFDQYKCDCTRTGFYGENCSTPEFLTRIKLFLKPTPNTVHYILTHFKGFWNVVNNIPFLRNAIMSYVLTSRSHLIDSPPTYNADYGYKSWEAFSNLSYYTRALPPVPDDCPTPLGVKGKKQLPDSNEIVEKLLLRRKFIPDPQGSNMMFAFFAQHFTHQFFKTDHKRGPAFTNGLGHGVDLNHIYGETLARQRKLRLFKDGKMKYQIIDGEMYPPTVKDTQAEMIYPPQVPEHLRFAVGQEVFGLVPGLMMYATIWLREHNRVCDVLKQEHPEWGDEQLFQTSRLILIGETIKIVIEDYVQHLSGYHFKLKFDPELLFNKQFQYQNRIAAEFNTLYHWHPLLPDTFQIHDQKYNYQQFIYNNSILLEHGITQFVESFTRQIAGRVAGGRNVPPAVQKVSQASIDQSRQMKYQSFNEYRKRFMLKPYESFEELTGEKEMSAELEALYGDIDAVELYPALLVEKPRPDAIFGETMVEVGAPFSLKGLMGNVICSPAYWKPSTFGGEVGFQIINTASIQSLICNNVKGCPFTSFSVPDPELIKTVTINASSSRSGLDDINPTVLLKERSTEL
Outline: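 Human COX-2 with heme preincubated with compound 10 min at 37° C in Tris-HCl pH 8.0 with phenol and EDTA, then arachidonic acid added for 2 min at 37° C. PGF2α, formed by stannous chloride reduction, quantified by enzyme immunoassay at 410 nm; % inhibition versus untreated control.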

caspase-8 = test: Western blot of caspase-8 in cell lysates; type: cell-based, human; conditions: 50 µg/mL, 48 h
Experimental: (§1) Furthermore, in order to confirm the implication of these compounds in the apoptotic pathways trigged by caspases, the proteins levels of caspases 8 and 9 were evaluated using Western blot analysis for the HCT-116 and LoVo carcinoma cells lysates after treatment with compounds 3a and 3f (50 µg/mL for 48 h); the untreated cells were used as a negative control.
(§2) In order to determine the levels of production of caspases 8 and 9 by the treated carcinoma cells, Western blot analysis was carried out using a FLAG® Western Detection Kit (Agilent Technologies, USA). Exponentially growing HCT-116 and LoVo cells were treated with 50 µg/mL of derivatives 3a and 3f for 48 h. After incubation, the cells were harvested and lysed using a Lysis buffer consisting of 10 mM of Tris, 100 mM of NaCl, 25 mM of ethylenediaminetetra aceticacid (EDTA), 25 mM of Ethylene glycol bis(2-aminoethyl)tetraacetic acid (EGTA), 0.1% Sodium dodecyl sulfate (SDS), 1% (v/v) Triton X-100 and 2% (v/v) NP-40 (pH 7.4), with a 1:200 protease inhibitor cocktail (Sigma-Adrich) and a 1:300 phosphatase inhibitor cocktail tablet (Roche Applied Science, Mannheim, Germany). The protein concentrations of each sample were determined calorimetrically using the Bradford method before proceeding to carry out the Western blotting. Equal amounts (20 µg) of the protein samples were mixed and boiled with SDS Loading buffer for 10 min, allowed to cool on ice and then loaded into SDS-polyacrylamide gel and separated using a Cleaver electrophoresis unit (Cleaver, Warwickshire, UK), before being transferred onto polyvinylidene fluoride (PVDF) membranes (Bio-Rad, USA) for 30 min using a Semi-dry Electroblotter (Biorad, USA) at 2.5 A and 25 V for 30 min. The membrane was blocked with 5% nonfat dry milk in TBS-T for two hours at room temperature, in order to reduce non-specific protein interactions between the membrane and the antibody. The blocked membrane was incubated overnight at 4 °C with primary antibodies (Cell Signaling Technology, Massachusetts, USA) and β-actin (Sigma). […] Briefly, the membranes were incubated for 1 min with a mixture of equal volumes of ECL solution A and ECL solution B. The chemiluminescent signals were captured using a CCD camera-based imager (Chemi Doc imager, Biorad, USA), and the bands’ intensities were then measured using ImageLab v3.0 (Bio-Rad). […] The proteins were detected using an enhanced chemiluminescence (ECL) detection system (Thermo Fischer Scientific, USA). The intensities of the bands were quantified using the NIH ImageJ software v3.0.1 (http://rsb.info.nih.gov/ij/).

caspase-9 = test: Western blot of caspase-9 in cell lysates; type: cell-based, human; conditions: 50 µg/mL, 48 h
Experimental: as §1, §2

SMILES | Mean IC50 α-Amylase (AA) (α-amylase) [µg/mL] | IC50 (α-amylase) [µM] | Increase in COX-2 inhibitory efficiency by duplicating the concentration (COX-2) [fold] | inhibition at 100 µg/mL (COX-2) [%] | inhibition at 200 µg/mL (COX-2) [%] | Increase in expressional level of caspase 8 (caspase-8; lysates of HCT-116) [times] | Increase in expressional level of caspase 8 (caspase-8; lysates of LoVo) [times] | Increase in expression level of caspase-9 (caspase-9; lysates of HCT-116) [times] | Increase in expression level of caspase-9 (caspase-9; lysates of LoVo) [times] | IC50 (COX-2; mean ± SD of three replicates) [µM]
O=c1c2cc(Cl)ccc2[nH]c(=S)n1-c1ccc([N+](=O)[O-])cc1 [Compound 3f, 6-Chloro-3-(4-nitro-phenyl)-2-thioxo-2,3-dihydro-1H-quinazolin-4-one] | 111.667 ± 3.512 | 335 | 2.34 | 11.4 ± 0.778 | 26.8 ± 3.89 | 2.2 | 4.1 | 3.1 | 4.8 | –
O=c1c2cc(Cl)ccc2[nH]c(=S)n1-c1cccc(C(F)(F)F)c1 [Compound 3a, 6-Chloro-2-thioxo-3-(3-trifluoromethyl-phenyl)-2,3-dihydro-1H-quinazolin-4-one] | 124.333 ± 4.042 | 349 | 1.70 | 57 ± 2.83 | 97 ± 1.34 | 2.3 | 5.1 | 3.6 | 7.2 | 281
